We go through two compounds from US10292390B2, “Inhibition and dispersion of bacterial biofilms with 2-aminobenzimidazole derivatives” (WISCONSIN ALUMNI RESEARCH FOUNDATION, priority 2011, dated 2019).

Structures are written as SMILES. “Also recorded” adds a separate entry of the source.

In one series the test system is P. aeruginosa biofilm. Put plainly: effects of metals on biofilm inhibition. The format is cell-based, Pseudomonas aeruginosa. The following applies: compound at 250 μM; Cu(II)SO4, Fe(II)SO4, Fe(III)Cl3, Zn(II)SO4 up to 1000 μM; 24 h. As for the experimental part:
Microtiter plates were first prepared by adding 50 μL aliquots of a 1 mM EtOH stock solution of 7 to each well in order to effect a final well concentration upon inoculum addition of 250 μM; this concentration was chosen as it is approximately the minimum concentration of 7 showing maximal biofilm inhibition. The EtOH was then removed by drying at 37° C., and the plates were sterilized. Directly prior to inoculation, 100 mM stock solutions of metals were freshly prepared in 18 MΩ H2O and diluted in series in a polypropylene 96-well microtiter plate (Costar 3879) to achieve stocks with the following concentrations: 100, 75, 50, 25, 12.5, 6.25, 1.25, 0.25, 0.05, and 0 mM. The choice of metals for evaluation was based on the results of the UV-Vis studies and included Cu(II)SO4, Fe(II)SO4.7H2O, Fe(III)Cl3.6H2O, and Zn(II)SO4.7H2O. Using a 10 μL multi-channel pipette, 2 μL aliquots of the metal stock solutions were added to the side of wells, avoiding contact with dried 7 on the bottom of the well. […] The highest metal:7 ratio obtained was 4:1 (1000 μM metal to 250 μM 7), which was assumed to be sufficient to see any mitigating effect based on our UV-Vis studies. […] All samples were tested in replicates of 3 wells and were assessed for biofilm production after 24 h incubation by CV staining and quantification.

A short description of series [1]: UV-Vis metal binding studies. The following applies: compound:metal ratios of approximately 1:1; preliminary. The format is physicochemical.
The next series deals with P. aeruginosa growth. Put plainly: bacterial growth over time (OD600). The format is cell-based, Pseudomonas aeruginosa. The following applies: prior to 12 h; at concentrations as low as 10 μM; diminish by 12 h. The protocol: The effects of compounds 7 and 21 on P. aeruginosa growth were evaluated by monitoring the OD600 as a function of time. Microtiter plates were prepared similar to biofilm dose-response analyses such that final well concentrations upon inoculum addition ranged from 10^x μM where x=3.5, 3, 2.5, 2, 1.5, 1, 0, −1, or −2. Compounds 7 and 21 were tested in replicates of 3 wells, and the OD600 was measured every 1-2 h for 24 h.

Series [2] can be described thus: solubility of stock in 95:5 M9+:LB media. The format is physicochemical. Conditions: at 3.16 mM in 95:5 M9+:LB media. The protocol: Compounds 7 and 21 were evaluated for their ability to disperse preformed P. aeruginosa biofilms. For biofilm dispersion assessment, the static CV biofilm assay described above was modified in order to introduce compound to preformed biofilm for an additional incubation period. Solvent evaporation delivery of compound was not possible in this format; thus, stock solutions of compounds 7 and 21 were prepared in 95:5 M9+:LB media. Stocks of 7 and 21 were prepared at 3.16 mM and 1 mM, respectively (21 was insoluble at 3.16 mM). These stocks were diluted in series to obtain final concentrations as follows: 10^x μM where x=3.5 (7 only), 3, 2.5, 2, 1.5 (21 only), 1, 0, −1, or −2. Biofilms were allowed to form in microtiter plates in the absence of compound for 24 h, after which non-biofilm material was removed by dumping and washing as normal with sterile PBS. After the second washing, 200 μL of fresh 95:5 M9+:LB media containing compound at various concentrations was added to the wells, and the plates were incubated at 37° C. for an additional 24 h. […] Biofilm was fixed and quantified with CV as described above. The amount of dispersed biofilm was determined via comparison of the amount of biofilm at 48 h in the presence of compound versus the amount of biofilm in the “no compound” positive control at 24 h. […]

As for `Nc1nc2ccccc2[nH]1` [Compound 7, 2-aminobenzimidazole], the “mitigating effect of metals on biofilm inhibitory activity” value with P. aeruginosa biofilm is “none of the tested metals were able to mitigate the biofilm inhibitory activity; also recorded: observed no change in activity”. For the same compound, the interaction with metals entry in series [1] is on record as “able to interact with certain metals”.

`Cc1cc2nc(N)[nH]c2cc1C` [Compound 21, 5,6-Dimethyl-2-aminobenzimidazole]: the “growth inhibition versus positive control” value in the series on P. aeruginosa growth is recorded as “greater than 20%”. For the same compound, the solubility entry in series [2] is on record as “insoluble”.
